Laboratory results: US20230048132A1, “CYCLIN-DEPENDENT KINASE INHIBITORS” (SPV THERAPEUTICS INC., priority 2018, published 2023)

How the values were obtained:
[1] = biological target: T1, CDK9-CYCLINT1 (Homo sapiens, UniProt P50750); experiment: CDK inhibition assay (microfluidic LabChip, IC50 format); assay type: biochemical; details: Table 3; purified enantiomers; read-out: CDK9-T (E1/E2)
T1 construct: purchased Carna

[2] = biological target: T2, CDK2-CYCLINA (Homo sapiens, UniProt P24941); experiment: as above; assay type: biochemical; details: Table 3; purified enantiomers; read-out: CDK2-A (E1/E2)
T2 construct: purchased Millipore

[3] = biological target: T3, CDK2-CYCLINE (Homo sapiens, UniProt P24941); experiment: as above; assay type: biochemical; details: Table 3; purified enantiomers; read-out: CDK2-E (E1/E2)
T3 construct: purchased Millipore

[4] = biological target: CDK4-CYCLIND1 (Homo sapiens, UniProt P11802); experiment: as above; details: CDK4 (E1/E2), Table 3; purified enantiomers
[5] = biological target: T4, CDK6-CYCLIND3 (Homo sapiens, UniProt Q00534); experiment: as above; assay type: biochemical; details: Table 3; purified enantiomers; read-out: CDK6 (E1/E2)
T4 construct: purchased Carna

[6] = system: all cell lines tested; experiment: 2D cell proliferation assay, geometric mean over the cell line panel; assay type: cell-based; details: Table 5 lower part; geometric mean over the 8-line panel; read-out: Geomean abs. IC50 value
Description: (§1) Viability of the cells was analyzed by using the CellTiter-Blue® Cell Viability Assay (Promega), and was performed according to manufacturer's instructions. Briefly, cells were harvested from exponential phase cultures (Chapter 6.6), counted and plated in 96-well flat-bottom microtiter plates at a cell density of 4,000-60,000 cells/well in a volume of 140 μl per well. After a 24 hours recovery period, 10 μL cell culture medium (six control wells/plate) or culture medium with test compound were added (Chapter 6.2). The compounds were applied at five concentrations in full-log increments up to 100 μM in duplicate. Cultures were incubated at 37° C. and 5% CO2 in a humidified atmosphere for another three days. After three days of treatment, 20 μl/well CellTiter-Blue® reagent was added. Following incubation with CellTiter-Blue® reagent for up to four hours, fluorescence (FU) was measured by using the Enspire Multimode Plate Reader (excitation λ=570 nm, emission λ=600 nm). For calculations, the mean values of duplicate/sextuplicate (untreated control) data were used.
(§2) IC values are reported as relative IC50 values and absolute IC50 and IC70 values. […] The absolute IC70 value gives the concentration of the test compound that achieves T/C=30%. The relative IC50 value is the concentration of test compound that gives a response halfway between the top and bottom plateau of the sigmoidal concentration-response curve (inflection point of the curve). Calculation was done by 4parameter non-linear curve fit (Oncotest Data Warehouse Software).
(§3) If an IC50 or IC70 value could not be determined within the examined dose range (because a compound was either too active or lacked activity), the lowest or highest concentration studied was used for calculation of the geometric mean value.
The overall potency of a compound was determined by the geometric mean IC50/IC70 values of all individual IC50/IC70 values. In the heatmap representation of IC50 and IC70 values, the distribution of the IC50 or IC70 values obtained for a test compound in the individual cell lines is given in relation to the geometric mean IC50 or IC70 value, obtained over all PDX models tested. The individual IC values range from 1/32-fold geometric mean IC (corresponding to very potent compound activity or high tumor sensitivity) to 32-fold geometric mean IC (corresponding to lack of compound activity or tumor resistance). The heatmap presentation, therefore, represents an antiproliferative “fingerprint” profile of a test compound.

[7] = system: MAXFLB MCF7 (ER+); experiment: 2D cell proliferation assay (CellTiter-Blue); assay type: cell-based; details: Homo sapiens, 72 h, three days of treatment, read-out: abs. IC50
Description: as §1
(§4) An assay was considered fully evaluable if the following quality control criteria were fulfilled: • control/background ratio>3.0-Z′-factor calculated within the assay plate>0.5 [7]—coefficient of variation in the growth control wells <30%
(§5) Drug effects were expressed in terms of the percentage of the fluorescence signal, obtained by comparison of the mean signal in the treated wells with the mean signal of the untreated controls (expressed by the test-versus-control value, T/C-value [%]):
as §2, §3

[8] = system: LEXFAL MOLT-4; experiment: 2D cell proliferation assay (CellTiter-Blue); assay type: cell-based; details: Homo sapiens, 72 h, three days of treatment, read-out: abs. IC50
Description: as §1, §4, §5, §2, §3

[9] = system: MEXF WM-266-4; experiment: 2D cell proliferation assay (CellTiter-Blue); assay type: cell-based; details: Homo sapiens, 72 h, three days of treatment, read-out: abs. IC50
Description: as §1, §4, §5, §2, §3

[10] = system: LXFA A549; experiment: 2D cell proliferation assay (CellTiter-Blue); assay type: cell-based; details: Homo sapiens, 72 h, three days of treatment, read-out: abs. IC50
Description: as §1, §4, §5, §2, §3

[11] = system: MAXFTN MDA-MB-231 (ER−); experiment: 2D cell proliferation assay (CellTiter-Blue); assay type: cell-based; details: Homo sapiens, 72 h, three days of treatment, read-out: abs. IC50
Description: as §1, §4, §5, §2, §3

[12] = system: LXFL NCl-H1299; experiment: 2D cell proliferation assay (CellTiter-Blue); assay type: cell-based; details: 72 h, three days of treatment, read-out: abs. IC50
Description: as §1, §4, §5, §2, §3

[13] = system: LEXFAM MV4-11; experiment: 2D cell proliferation assay (CellTiter-Blue); assay type: cell-based; details: Homo sapiens, 72 h, three days of treatment, read-out: abs. IC50
Description: as §1, §4, §5, §2, §3

[14] = system: MAXFTN ZR-75-1 (ER+); experiment: 2D cell proliferation assay (CellTiter-Blue); assay type: cell-based; details: Homo sapiens, 72 h, three days of treatment, read-out: abs. IC50
Description: as §1, §4, §5, §2, §3

[15] = Pharmacokinetics after IV bolus; assay type: in vivo; details: rat, plasma; rats; IV bolus 30 mg/kg; N = 3
Description: (§6) Nonclinical pharmacokinetic (PK) parameters of lead CDK4/6/9 inhibitors were determined in an intravenous (IV) and oral study (p.o.) conducted in rats. Lead compounds were each administered as a single oral dose at 100 mg/kg or by IV bolus via the caudal vein at the dose of 30 mg/kg. Blood samples were collected at 0.25, 0.5, 1, 2, 4, 8, 12, and 24 hours post i.v. administration, and at 1, 2, 4, 8, 24 and 48 hours post oral administration. Plasma was processed for drug concentration analysis using a validated LCMS/MS method, and PK parameters were calculated by using WinNonlin.

[16] = Pharmacokinetics after oral administration; assay type: in vivo; details: rat, plasma, rats
Description: as §6

[17] = oral administration 100 mg/kg, N = 3

T4 sequence (Q00534 whole entry): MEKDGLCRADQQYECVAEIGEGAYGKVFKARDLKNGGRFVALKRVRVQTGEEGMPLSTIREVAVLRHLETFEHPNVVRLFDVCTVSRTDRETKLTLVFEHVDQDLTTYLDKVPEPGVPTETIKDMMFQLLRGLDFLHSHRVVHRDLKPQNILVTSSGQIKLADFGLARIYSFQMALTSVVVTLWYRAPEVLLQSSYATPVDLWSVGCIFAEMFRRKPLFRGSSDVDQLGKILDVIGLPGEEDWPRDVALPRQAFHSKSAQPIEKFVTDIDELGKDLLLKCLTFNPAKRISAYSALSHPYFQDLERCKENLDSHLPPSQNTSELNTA
T4 sequence (P30281 whole entry partner): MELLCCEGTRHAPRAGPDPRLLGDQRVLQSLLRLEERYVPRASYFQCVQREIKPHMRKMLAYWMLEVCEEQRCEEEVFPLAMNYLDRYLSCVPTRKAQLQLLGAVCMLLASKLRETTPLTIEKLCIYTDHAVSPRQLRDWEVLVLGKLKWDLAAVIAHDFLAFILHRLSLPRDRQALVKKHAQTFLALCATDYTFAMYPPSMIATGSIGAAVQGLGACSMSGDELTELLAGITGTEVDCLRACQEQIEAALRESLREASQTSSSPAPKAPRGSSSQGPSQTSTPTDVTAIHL
CDK4-CYCLIND1, sequence (P11802 whole entry): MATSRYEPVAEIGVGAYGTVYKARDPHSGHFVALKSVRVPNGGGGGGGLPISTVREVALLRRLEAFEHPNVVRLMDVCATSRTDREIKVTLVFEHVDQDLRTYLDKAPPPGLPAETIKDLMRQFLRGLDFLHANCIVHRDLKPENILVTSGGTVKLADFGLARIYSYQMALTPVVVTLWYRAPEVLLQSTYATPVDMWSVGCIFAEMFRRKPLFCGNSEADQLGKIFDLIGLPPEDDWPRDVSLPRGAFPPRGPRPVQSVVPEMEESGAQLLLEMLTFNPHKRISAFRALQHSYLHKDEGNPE
CDK4-CYCLIND1, sequence (P24385 whole entry partner): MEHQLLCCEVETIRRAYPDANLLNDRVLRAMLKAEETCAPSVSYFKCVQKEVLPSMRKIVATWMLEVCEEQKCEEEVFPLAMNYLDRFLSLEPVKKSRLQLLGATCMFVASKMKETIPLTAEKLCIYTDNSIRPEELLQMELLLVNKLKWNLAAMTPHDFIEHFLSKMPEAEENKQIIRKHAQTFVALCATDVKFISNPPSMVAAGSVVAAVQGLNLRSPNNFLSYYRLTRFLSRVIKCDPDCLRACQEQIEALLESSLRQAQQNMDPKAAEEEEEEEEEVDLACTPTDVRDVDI
T1 sequence (P50750 whole entry): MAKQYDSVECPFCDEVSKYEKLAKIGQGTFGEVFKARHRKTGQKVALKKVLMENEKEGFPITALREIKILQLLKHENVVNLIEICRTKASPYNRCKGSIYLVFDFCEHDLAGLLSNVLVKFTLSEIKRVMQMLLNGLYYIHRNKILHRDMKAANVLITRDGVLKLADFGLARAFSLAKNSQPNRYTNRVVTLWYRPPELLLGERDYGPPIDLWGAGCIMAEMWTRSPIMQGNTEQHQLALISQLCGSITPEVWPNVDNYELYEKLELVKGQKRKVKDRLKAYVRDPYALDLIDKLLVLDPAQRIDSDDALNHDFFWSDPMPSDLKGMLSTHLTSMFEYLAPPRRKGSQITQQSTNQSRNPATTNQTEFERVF
T1 sequence (O60563 whole entry partner): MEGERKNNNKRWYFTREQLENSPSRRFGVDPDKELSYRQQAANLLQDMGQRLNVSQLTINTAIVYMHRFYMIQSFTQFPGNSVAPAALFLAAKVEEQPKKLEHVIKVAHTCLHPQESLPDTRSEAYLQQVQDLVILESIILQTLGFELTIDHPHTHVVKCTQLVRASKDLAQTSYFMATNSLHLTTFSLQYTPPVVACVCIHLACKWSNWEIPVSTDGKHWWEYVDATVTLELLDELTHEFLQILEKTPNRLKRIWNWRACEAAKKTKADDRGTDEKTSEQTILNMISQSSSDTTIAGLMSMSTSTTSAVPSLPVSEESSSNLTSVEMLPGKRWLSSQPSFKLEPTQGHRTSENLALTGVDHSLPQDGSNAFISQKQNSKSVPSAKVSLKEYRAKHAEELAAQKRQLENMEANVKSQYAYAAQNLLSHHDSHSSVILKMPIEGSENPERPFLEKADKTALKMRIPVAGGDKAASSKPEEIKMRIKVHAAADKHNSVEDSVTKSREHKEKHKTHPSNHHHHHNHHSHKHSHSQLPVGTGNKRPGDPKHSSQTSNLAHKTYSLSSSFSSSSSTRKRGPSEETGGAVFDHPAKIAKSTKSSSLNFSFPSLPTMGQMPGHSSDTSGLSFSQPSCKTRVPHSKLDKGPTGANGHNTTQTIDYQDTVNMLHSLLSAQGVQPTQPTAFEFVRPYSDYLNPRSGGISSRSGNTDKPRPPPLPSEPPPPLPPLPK

| Structure (SMILES) | IC50 [1] [nM] | IC50 [2] [nM] | IC50 [3] [nM] | IC50 [4] [nM] | IC50 [5] [nM] | IC50 [6] [nM] | IC50 [7] [nM] | IC50 [9] [nM] | IC50 [10] [nM] | IC50 [11] [nM] | IC50 [12] [nM] | IC50 [13] [nM] | IC50 [14] [nM] | other results |
| --- | --- | --- | --- | --- | --- | --- | --- | --- | --- | --- | --- | --- | --- | --- |
| O=C1NCC[C@]12Cc1cnc(Nc3ccc(N4CCNCC4)c(F)c3)nc1N(C1CCCC1)C2=O [Example D49, (R)-8-cyclopentyl-2-((3-fluoro-4-(piperazin-1-yl)phenyl)amino)-5,8-dihydro-7H-spiro[pyrido[2,3-d]pyrimidine-6,3′-pyrrolidine]-2′,7-dione] | 1240 | 3410 | 5660 | 136 | 360 |  |  |  |  |  |  |  |  |  |
| O=C1NCC[C@@]12Cc1cnc(Nc3ccc(N4CCNCC4)c(F)c3)nc1N(C1CCCC1)C2=O [Example D50, (S)-8-cyclopentyl-2-((3-fluoro-4-(piperazin-1-yl)phenyl)amino)-5,8-dihydro-7H-spiro[pyrido[2,3-d]pyrimidine-6,3′-pyrrolidine]-2′,7-dione] | 4.37 | 29.1 | 62.4 | 0.78 | 1.29 | 173 | 80 | 46 | 338 | 150 | 187 | ≤ 10 | 23300 | IC50 [8]: 101 nM |
| CN1CCN(c2ccc(Nc3ncc4c(n3)N(C3CCCC3)C(=O)[C@@]3(CCNC3=O)C4)cc2F)CC1 [Example D51, (R)-8-cyclopentyl-2-((3-fluoro-4-(4-methylpiperazin-1-yl)phenyl)amino)-5,8-dihydro-7H-spiro[pyrido[2,3-d]pyrimidine-6,3′-pyrrolidine]-2′,7-dione] | 1150 | 5940 | 11500 | 211 | 444 |  |  |  |  |  |  |  |  |  |
| CN1CCN(c2ccc(Nc3ncc4c(n3)N(C3CCCC3)C(=O)[C@]3(CCNC3=O)C4)cc2F)CC1 [Example D52, (S)-8-cyclopentyl-2-((3-fluoro-4-(4-methylpiperazin-1-yl)phenyl)amino)-5,8-dihydro-7H-spiro[pyrido[2,3-d]pyrimidine-6,3′-pyrrolidine]-2′,7-dione] | 5.75 | 53.1 | 101 | 0.904 | 1.94 | 184 | 122 | 509 | 257 | 318 | 151 | ≤ 10 | 925 | Cmax [15]: 6360 ng/mL; clearance [15]: 19.3 mL/min/kg; half-life [15]: 4.45 h; bioavailability ([16]; oral 100 mg/kg versus IV 30 mg/kg, read-out: BIOAVAILABILITY F): 43.9%; AUC [16, 17]: 37700 ng·h/mL; Cmax [16, 17]: 4350 ng/mL; MRT [16, 17]: 5.48 h; half-life [16, 17]: 7.1 h |
| CC(C)N1CCN(c2ccc(Nc3ncc4c(n3)N(C3CCCC3)C(=O)[C@]3(CCNC3=O)C4)cc2F)CC1 [Example D54, (S)-8-cyclopentyl-2-((3-fluoro-4-(4-isopropylpiperazin-1-yl)phenyl)amino)-5,8-dihydro-7H-spiro[pyrido[2,3-d]pyrimidine-6,3′-pyrrolidine]-2′,7-dione] |  | 45.6 | 106 | 0.822 | 1.65 | 352 | 188 | 331 | 1400 |  | 212 | 10 | 10300 |  |
